Data taken from ChEMBL document CHEMBL1201862, “PubChem BioAssay data set” (2004).
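Step 1: Grow cells in 96-well plates. Step 2: Expose to compound for 48 hours at 5 concentrations. Step 3: Interpolate endpoints linearly; if unreached, use highest concentration. The concentration for 50% growth inhibition is given as GI50.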 Active and inactive are the calls of the source. Rule as the data show it: active = GI50 up to about 1.1 µM and inactive = higher.

Experiments:
Assay in all cases: inhibition of tumour cell growth, NCI panel, 48 h
SF-295 = system: SF-295
HT-29 = system: HT-29
XF498 = system: XF498
UACC-62 = system: UACC-62
SNB-78 = system: SNB-78
SN12C = system: SN12C
SNB-19 = system: SNB-19
SNB-75 = system: SNB-75
HOP-92 = system: HOP-92
K562 = system: K562
CCRF-CEM = system: CCRF-CEM
U-251 = system: U-251
LXFL 529 = system: LXFL 529
786-0 = system: 786-0

Measured: GI50

CCC(C(C)N1CC(=O)NC(=O)C1)N1CC(=O)NC(=O)C1 (stereo not given)
inactive: SF-295 > 100 µM | HT-29 62.1 µM | XF498 14.5 µM | UACC-62 > 100 µM | SNB-78 > 66.4 µM | SN12C 6.27 µM | SNB-19 > 100 µM | SNB-75 > 48.9 µM | HOP-92 > 100 µM | K562 9.77 µM | CCRF-CEM 4.93 µM | U-251 > 61.9 µM

CSc1nc(NC(=O)O)c(N(C(C)=O)C(=O)O)c(=O)n1C
inactive: SF-295 > 100 µM | HT-29 > 100 µM | XF498 > 100 µM | UACC-62 > 100 µM | SNB-78 > 100 µM | SN12C > 100 µM | SNB-19 > 100 µM | HOP-92 > 100 µM | LXFL 529 > 100 µM | 786-0 > 100 µM | K562 > 100 µM | CCRF-CEM > 100 µM | U-251 > 100 µM

O=C(O)C1Cc2c([nH]c3ccccc23)C=N1 (stereo not given)
inactive: SF-295 > 100 µM | HT-29 > 100 µM | XF498 > 100 µM | UACC-62 > 100 µM | SNB-78 > 100 µM | SN12C > 100 µM | SNB-19 > 100 µM | SNB-75 > 100 µM | HOP-92 > 74.1 µM | K562 > 100 µM | CCRF-CEM > 100 µM | U-251 > 100 µM

Cc1cc(Cl)ccc1/N=C1/NC(=O)C(CC(=O)Nc2cccc(C)c2C)S1 (stereo not given)
inactive: SF-295 28 µM | HT-29 37.8 µM | XF498 10.7 µM | UACC-62 25.9 µM | SNB-78 28.5 µM | SN12C 25.9 µM | SNB-19 26.8 µM | SNB-75 19.9 µM | HOP-92 1.41 µM | 786-0 20.8 µM | K562 24.8 µM | CCRF-CEM 22.2 µM | U-251 26.2 µM

CN1C(=O)NC2(O)c3ccccc3C(=O)C12O (stereo not given)
inactive: SF-295 > 100 µM | HT-29 > 100 µM | XF498 > 100 µM | UACC-62 > 100 µM | SNB-78 > 100 µM | SNB-19 > 100 µM | SNB-75 > 100 µM | HOP-92 > 100 µM | LXFL 529 > 100 µM | 786-0 > 100 µM | K562 > 100 µM | CCRF-CEM > 100 µM | U-251 > 100 µM

CC1C=CC(=O)C(n2cc(F)c(=O)[nH]c2=O)O1 (stereo not given)
inactive: SF-295 > 10 µM | HT-29 18.2 µM | XF498 15.1 µM | UACC-62 16.2 µM | SNB-78 28.2 µM | SN12C 18.4 µM | SNB-19 22.2 µM | SNB-75 18.8 µM | HOP-92 17.5 µM | 786-0 16 µM | K562 17.7 µM | CCRF-CEM 8.89 µM | U-251 15.7 µM

COc1ccc2nc3cc(Cl)ccc3c(Sc3ccc([N+](=O)[O-])cc3C)c2c1
inactive: SF-295 > 100 µM | XF498 > 100 µM | UACC-62 > 100 µM | SNB-78 > 100 µM | SN12C 74.3 µM | SNB-19 > 100 µM | SNB-75 > 100 µM | HOP-92 > 100 µM | LXFL 529 > 100 µM | 786-0 > 100 µM | K562 > 100 µM | CCRF-CEM > 100 µM | U-251 > 100 µM

Cc1ccccc1NC(=O)C(=O)C1CN(c2ccccc2)N=C1N (stereo not given)
inactive: HT-29 > 100 µM | XF498 > 100 µM | SNB-78 > 100 µM | SN12C > 100 µM | SNB-19 > 100 µM | SNB-75 86.5 µM | HOP-92 > 100 µM | LXFL 529 > 100 µM | 786-0 > 100 µM | K562 > 100 µM | CCRF-CEM > 100 µM | U-251 > 100 µM

COc1ccc(NC(=O)CC(=O)n2nc(C)c(/N=N/c3ccccc3C(=O)O)c2C)cc1
inactive: SF-295 > 100 µM | HT-29 > 100 µM | XF498 > 100 µM | UACC-62 > 100 µM | SNB-78 29.3 µM | SN12C > 100 µM | SNB-19 80.7 µM | SNB-75 33 µM | LXFL 529 > 100 µM | 786-0 77.3 µM | K562 > 100 µM | CCRF-CEM > 100 µM | U-251 > 100 µM

CC(=O)NC1=C(NCC(C)(C)C)C(=O)c2ccccc2C1=O
inactive: SF-295 > 100 µM | HT-29 > 100 µM | XF498 25.8 µM | UACC-62 39 µM | SNB-78 86.1 µM | SN12C > 100 µM | SNB-19 > 100 µM | SNB-75 96.6 µM | LXFL 529 > 100 µM | 786-0 > 100 µM | K562 38.2 µM | CCRF-CEM 38.5 µM | U-251 65 µM

Cc1ccc(C2=C(c3ccccc3)C(Br)(c3ccc(C)cc3)C(c3ccccc3)=C2c2ccc(C)cc2)cc1
inactive: SF-295 > 100 µM | XF498 > 100 µM | UACC-62 > 100 µM | SNB-78 > 100 µM | SN12C > 100 µM | SNB-19 > 100 µM | HOP-92 > 100 µM | LXFL 529 > 100 µM | 786-0 > 100 µM | K562 > 100 µM | CCRF-CEM > 100 µM | U-251 > 100 µM

COC(=O)C1=C2CCC(=O)[C@@]2(C)C(OC(C)=O)C=CC1 (stereo not given in full)
inactive: SF-295 37.1 µM | HT-29 > 100 µM | XF498 36.3 µM | UACC-62 76.6 µM | SNB-78 57 µM | SN12C > 100 µM | SNB-75 56.8 µM | LXFL 529 36.8 µM | 786-0 > 100 µM | K562 30.8 µM | CCRF-CEM 22.9 µM | U-251 59.6 µM

CC1CCCCc2nc3c(c(=O)n21)CCCC3 (stereo not given)
inactive: SF-295 > 100 µM | HT-29 > 100 µM | XF498 > 100 µM | UACC-62 > 100 µM | SNB-78 > 100 µM | SN12C > 100 µM | SNB-19 > 100 µM | SNB-75 > 100 µM | HOP-92 > 100 µM | LXFL 529 > 100 µM | 786-0 > 100 µM | K562 > 100 µM | U-251 > 100 µM

CCCCc1ccc(-n2c3nc(=O)n(C)c(=O)c-3nc3ccccc32)cc1
inactive: SF-295 11.1 µM | HT-29 3.11 µM | XF498 18.2 µM | UACC-62 1.77 µM | SNB-78 16.3 µM | SN12C 7.35 µM | SNB-19 8.24 µM | SNB-75 15.3 µM | LXFL 529 15.6 µM | 786-0 16.3 µM | K562 12.4 µM | CCRF-CEM 13.5 µM | U-251 10.6 µM

Cc1ccc(S(=O)(=O)NC(=O)Nc2nc(Cl)cc(Cl)n2)cc1
inactive: SF-295 > 100 µM | XF498 > 100 µM | UACC-62 > 100 µM | SNB-78 > 100 µM | SN12C > 100 µM | SNB-19 > 100 µM | SNB-75 > 100 µM | HOP-92 99.3 µM | LXFL 529 > 100 µM | 786-0 > 100 µM | K562 62.2 µM | CCRF-CEM > 100 µM | U-251 > 100 µM
